From patent US20230158155A1, “Cell Surface Receptor Binding Compounds and Conjugates” (priority 2020, published 2023)
Where two headings read alike, the source gives them in different places.

How the values were obtained:
[1] = target: T1, recombinant human CI-M6PR protein (Homo sapiens, UniProt P11717); assay: Human CI-M6PR binding assay (ELISA); details: for EC50: antibody conjugate; for binding affinity to M6PR compared to Compound I-7: conjugates of ligand linkers; for binding affinity for M6PR, rank among the conjugates tested: matuzumab conjugates, ELISA, FIGS. 19A-19F
T1 construct: purchased R&D 6418-GR-050
Method: Nunc black solid bottom MaxiSorp plates were allowed to incubate overnight at 4° C. coated with […] of recombinant human CI-M6PR protein (R&D, 6418-GR-050) in 50 μL PBS. The next day, coating was decanted and plates were washed 3× with PBS. Wells were blocked with 350 μL of 3% BSA-PBS for 1 hour at room temperature. […] 50 μL of diluted conjugates were added to the plate and allowed to incubate at room temperature for 2 hours. After incubation, solutions in plate were decanted and washed with 350 μL of 0.05% PBS-Tween20 three times, drying the plate each wash on a clean paper towel. 50 μL of peroxidase AffiniPure Mouse Anti-Human IgG (Jackson Immuno, 209-035-088) diluted in 3% BSA-PBS to […] was added to the plate and allowed to incubate for 1 hour at room temperature in the dark. After incubation, solutions in plate were decanted and washed with 350 μL of 0.05% PBS-Tween20 3 times, drying the plate each wash on a clean paper towel. […] 50 μL of QuantaBlu solution was added to wells and allowed to incubate for 5-10 minutes at room temperature. After incubation, plates were read on a Perkin Elmer EnVision using photometric 340 and Umbelliferone 460 filter sets for excitation and emission, respectively. Data analysis and non-linear curve-fitting was performed using GraphPad Prism.

Hep G2 cells = assay: Conjugate-mediated uptake of IgG2a into HepG2 cells; format: cell-based, human; details: one hour incubation, FIG. 25; average loading (816), DAR4 (817), DAR4 (520)
Method: The uptake of antibody conjugates of exemplary M6PR or ASGPR binding compounds was assessed in Hep G2 cells, using a method similar to that described in Example 79.

Jurkat cells = assay: Conjugate-mediated uptake of IgG2a-Alexa488 into Jurkat cells (flow cytometry); format: cell-based; details: for uptake of IgG2a-Alexa488 into Jurkat cells: anti-IgG2a conjugates, 1 hour and 24 hours, FIGS. 21-22
Method: The anti-IgG2a conjugates were bound to IgG2a-Alexa488, as follows: equal molar ratios of anti-IgG2a and IgG2a-Alexa488 were added in tissue culture media for 30 minutes at room temperature. The resulting anti-IgG2a:IgG2a antibody-Alexa488 compositions were added to Jurkat cells (100 k cells/50 ul per well, n=2), and Alexa488 fluorescence levels were measured (via Alexa488 measurement) at 1 hour and 24 hours by flow cytometry. Because Alexa488 accumulates in cells, this presents a way to measure total intracellular uptake by cells over time.

[2] = Serum pharmacokinetic analysis of rIgG1 (anti-IgG2a) antibody conjugates; format: in vivo; details: C57B6 mice, intravenous, 10 μg/mouse, 0.5-24 hours, FIGS. 20A-20C
Method: A pharmacokinetic analysis of the rIgG1 (anti-IgG2a) antibody conjugates described in the previous example was performed in mice. In particular, C57B6 mice were intravenously administered each rIgG1 antibody conjugate at 10 μg/mouse (5 mice per group). Blood was collected at 0.5, 1, 2, 6, and 24 hours and serum rIgG1 was analyzed using an ELISA kit (Abcam) according to the manufacturer's instructions. Samples were run across 3 different plates with unconjugated rIgG1 controls (UNLB-anti-IgG2a rIgG1) included on all 3 plates.

[3] = average loading DAR 9, FIG. 23, read-out: EC50 (nM) in M6PR binding assay
[4] = average loading DAR 9.5, FIG. 23, read-out: EC50 (nM) in M6PR binding assay

Molecule `O=C(CCCCCc1cn(CCOCCOCCOCCOCCC(=O)Oc2c(F)c(F)c(F)c(F)c2F)nn1)Nc1ccc(O[C@H]2O[C@H](CCP(=O)(O)O)[C@@H](O)[C@H](O)[C@@H]2O)cc1` [513 (I-39)] has an EC50 [1, 3] of 0.186 nM.

For `O=C(CCOCCn1cc(CCCCNC(=S)Nc2ccc(O[C@H]3O[C@H](CCP(=O)(O)O)[C@@H](O)[C@H](O)[C@@H]3O)cc2)nn1)Oc1c(F)c(F)c(F)c(F)c1F` [519 (I-47)], the EC50 [1, 4] was 0.266 nM.

For `O=C(CCOCCOCCOCCOCCn1cc(CCCCNC(=S)Nc2ccc(O[C@H]3O[C@H](CCP(=O)(O)O)[C@@H](O)[C@H](O)[C@@H]3O)cc2)nn1)Oc1c(F)c(F)c(F)c(F)c1F` [520 (I-7)], the “uptake into HepG2 cells (cell fluorescence versus conjugate concentration)” value (Hep G2 cells) was “comparable HepG2 cellular uptake”, the EC50 ([1]; additional M6PR binding assays, average loading DAR 4, read-out: EC50 (nM) in M6PR binding assay) was 0.412 nM and the EC50 ([1]; average loading DAR 2, FIG. 23, read-out: EC50 (nM) in M6PR binding assay) was 2.6 nM. It also gave an EC50 ([1]; average loading DAR 4, FIG. 23, read-out: EC50 (nM) in M6PR binding assay) of 0.221 nM and an EC50 [1, 3] of 0.217 nM.

In the case of `O=C(CCOCCn1cc(COCCOCCOCCNC(=S)Nc2ccc(O[C@H]3O[C@H](CCP(=O)(O)O)[C@@H](O)[C@H](O)[C@@H]3O)cc2)nn1)Oc1c(F)c(F)c(F)c(F)c1F` [522 (I-49)], the EC50 ([1]; average loading DAR 11, FIG. 23, read-out: EC50 (nM) in M6PR binding assay) is reported as 0.227 nM.

Work on `O=C(CCOCCOCCOCCOCCOCCOCCOCCOCCn1cc(CCCCNC(=S)Nc2ccc(O[C@H]3O[C@H](CCP(=O)(O)O)[C@@H](O)[C@H](O)[C@@H]3O)cc2)nn1)Oc1c(F)c(F)c(F)c(F)c1F` [526 (I-48)] yielded an EC50 ([1]; average loading DAR 10, FIG. 23, read-out: EC50 (nM) in M6PR binding assay) of 0.186 nM.

In the case of `C[C@H](NC(=O)CCCn1cc(CCCCNC(=S)Nc2ccc(O[C@H]3O[C@H](CCP(=O)(O)O)[C@@H](O)[C@H](O)[C@@H]3O)cc2)nn1)C(=O)N[C@@H](C)C(=O)N[C@@H](C)C(=O)NCCOCCOCCOCCOCCC(=O)Oc1c(F)c(F)c(F)c(F)c1F` [528 (I-51)], the “uptake into Jurkat cells, average loading DAR9 versus lower average loading DAR2” value (Jurkat cells; one hour incubation, FIG. 24) is reported as “greater uptake”, the EC50 ([1]; EC50 (nM) in M6PR binding assay, additional M6PR binding assays, average loading DAR 2) is reported as 4.44 nM and the EC50 ([1]; EC50 (nM) in M6PR binding assay, additional M6PR binding assays, average loading DAR 8) is reported as 0.301 nM. For the same molecule, the EC50 ([1]; EC50 (nM) in M6PR binding assay, average loading DAR 9.5, FIG. 23) was 0.199 nM.

With `O=C(NCCCCc1cn(CCOCCOCCOCCOCCC(=O)Oc2c(F)c(F)c(F)c(F)c2F)nn1)Nc1ccc(O[C@H]2O[C@H](CCP(=O)(O)O)[C@@H](O)[C@H](O)[C@@H]2O)cc1` [529 (I-38)] the EC50 [1, 4] was 0.194 nM.

`O=C(CCOCCOCCOCCOCCn1cc(CCCCNC(=S)Nc2ccc(O[C@H]3O[C@H](CC(C(=O)O)C(=O)O)[C@@H](O)[C@H](O)[C@@H]3O)cc2)nn1)Oc1c(F)c(F)c(F)c(F)c1F` [537 (I-66)] gave an EC50 ([1]; additional M6PR binding assays, average loading DAR 8, read-out: EC50 (nM) in M6PR binding assay) of 2.31 nM and an EC50 [1, 3] of 3.36 nM.

In the case of `O=C(CCOCCOCCOCCN(CCOCCOCCOCCn1cc(CCCCNC(=S)Nc2ccc(O[C@H]3O[C@H](CCP(=O)(O)O)[C@@H](O)[C@H](O)[C@@H]3O)cc2)nn1)CCOCCOCCOCCn1cc(CCCCNC(=S)Nc2ccc(O[C@H]3O[C@H](CCP(=O)(O)O)[C@@H](O)[C@H](O)[C@@H]3O)cc2)nn1)NCCN1C(=O)C=CC1=O` [706 (I-41)], the EC50 ([1]; additional M6PR binding assays, maleimide-Cys conjugation, read-out: EC50 (nM) in M6PR binding assay) is reported as 0.271 nM.

With `O=C(CCCn1cc(CCCCNC(=S)Nc2ccc(O[C@H]3O[C@H](CCP(=O)(O)O)[C@@H](O)[C@H](O)[C@@H]3O)cc2)nn1)N[C@@H](CCCCn1cc(CCCCNC(=S)Nc2ccc(O[C@H]3O[C@H](CCP(=O)(O)O)[C@@H](O)[C@H](O)[C@@H]3O)cc2)nn1)C(=O)N[C@@H](CCCCn1cc(CCCCNC(=S)Nc2ccc(O[C@H]3O[C@H](CCP(=O)(O)O)[C@@H](O)[C@H](O)[C@@H]3O)cc2)nn1)C(=O)N[C@@H](CCCCn1cc(CCCCNC(=S)Nc2ccc(O[C@H]3O[C@H](CCP(=O)(O)O)[C@@H](O)[C@H](O)[C@@H]3O)cc2)nn1)C(=O)NCCOCCOCCOCCOCCC(=O)Oc1c(F)c(F)c(F)c(F)c1F` [728 (I-52)] the EC50 ([1]; additional M6PR binding assays, average loading DAR 6, read-out: EC50 (nM) in M6PR binding assay) was 0.28 nM.

For `CC(=O)N[C@H]1[C@H](OCCCCC(=O)NCCCNC(=O)CCOCC(COCCC(=O)NCCCNC(=O)CCCCO[C@@H]2O[C@H](CO)[C@H](O)[C@H](O)[C@H]2NC(C)=O)(COCCC(=O)NCCCNC(=O)CCCCO[C@@H]2O[C@H](CO)[C@H](O)[C@H](O)[C@H]2NC(C)=O)NC(=O)CCCCCCCCCCC(=O)Oc2c(F)c(F)c(F)c(F)c2F)O[C@H](CO)[C@H](O)[C@@H]1O` [816 (ASGPR compound I-124)], the “uptake into HepG2 cells (cell fluorescence versus conjugate concentration)” value (Hep G2 cells) was “comparable HepG2 cellular uptake”.

For `CC(=O)N[C@H]1[C@H](OCCCCC(=O)NCCCNC(=O)CCOCC(COCCC(=O)NCCCNC(=O)CCCCO[C@@H]2O[C@H](CO)[C@H](O)[C@H](O)[C@H]2NC(C)=O)(COCCC(=O)NCCCNC(=O)CCCCO[C@@H]2O[C@H](CO)[C@H](O)[C@H](O)[C@H]2NC(C)=O)NC(=O)CCCCCCCCCCCN2C(=O)C=CC2=O)O[C@H](CO)[C@H](O)[C@@H]1O` [817 (ASGPR compound I-123), N-[1,3-bis(2-{[3-(5-{[(2R,3R,4R,5R,6R)-3-acetamido-4,5-dihydroxy-6-(hydroxymethyl)oxanyl]oxy}pentanamido)propyl]carbamoyl}ethoxy)-2-[(2-{[3-(5-{[(2R,3R,4R,5R,6R)acetamido-4,5-dihydroxy-6-(hydroxymethyl)oxanyl]oxy}pentanamido)propyl]carbamoyl}ethoxy)methyl]propan-2-yl]-12-(2,5-dioxo-2,5-dihydro-1H-pyrrol-1-yl)dodecanamide], the “uptake into HepG2 cells (cell fluorescence versus conjugate concentration)” value (Hep G2 cells) was “comparable HepG2 cellular uptake”.

For `O=C(CCOCCn1cc(CCO[C@H]2O[C@H](CCP(=O)(O)O)[C@@H](O)[C@H](O)[C@@H]2O)nn1)Oc1c(F)c(F)c(F)c(F)c1F` [Compound I-11], the “uptake of IgG2a-Alexa488 into Jurkat cells” value (Jurkat cells) was “sufficiently robust uptake”, the “half life (serum rIgG1) compared to Compound I-7 conjugate” value [2] was “longer half life” and the “binding affinity to M6PR compared to Compound I-7” value [1] was “weaker binding affinity”.

In the case of `O=C(CCOCCOCCOCCN(CCOCCOCCOCCn1cc(CCC[C@H]2O[C@H](CCP(=O)(O)O)[C@@H](O)[C@H](O)[C@@H]2O)nn1)CCOCCOCCOCCn1cc(CCO[C@H]2O[C@H](CCP(=O)(O)O)[C@@H](O)[C@H](O)[C@@H]2O)nn1)Oc1c(F)c(F)c(F)c(F)c1F` [Compound I-12], the “uptake of IgG2a-Alexa488 into Jurkat cells” value (Jurkat cells) is reported as “sufficiently robust uptake”, the “half life (serum rIgG1) compared to Compound I-7 conjugate” value [2] is reported as “longer half life” and the “binding affinity to M6PR compared to Compound I-7” value [1] is reported as “weaker binding affinity”.

B1: Compound I-7 (d8): "matuzumab conjugates (matuzumab-Compound I-7(d4), matuzumab-Compound I-7(d8) ..." (conjugate)
heavy: QVQLVQSGAEVKKPGASVKVSCKASGYTFTSHWMHWVRQAPGQGLEWIGEFNPSNGRTNYNEKFKSKATMTVDTSTNTAYMELSSLRSEDTAVYYCASRDYDYAGRYFDYWGQGTLVTVSSASTKGPSVFPLAPSSKSTSGGTAALGCLVKDYFPEPVTVSWNSGALTSGVHTFPAVLQSSGLYSLSSVVTVPSSSLGTQTYICNVNHKPSNTKVDKKVEPKS
light: DIQMTQSPSSLSASVGDRVTITCSASSSVTYMYWYQQKPGKAPKLLIYDTSNLASGVPSRFSGSGSGTDYTFTISSLQPEDIATYYCQQWSSHIFTFGQGTKVEIKRTVAAPSVFIFPPSDEQLKSGTASVVCLLNNFYPREAKVQWKVDNALQSGNSQESVTEQDSKDSTYSLSSTLTLSKADYEKHKVYACEVTHQGLSSPVTKSFNRGE
modifications: left off: a dimerising Fc or GST
With B1 the “binding affinity for M6PR, rank among the conjugates tested” value [1] was “highest”.

B2: Compound I-11 (d4): "matuzumab conjugates (... matuzumab-Compound I-11(d4) ..." (conjugate)
heavy: B1 heavy
light: B1 light
modifications: left off: a dimerising Fc or GST
In the case of B2, the “binding affinity for M6PR, rank among the conjugates tested” value [1] is reported as “lowest”.
